Values of other authors in patent US10799550B2, “Oral compositions comprising beta-escin for reducing acetaldehyde toxicity” (ESCILAB SP. Z O.O., priority 2016, dated 2020).

Tested on: ethanol absorption
Settings: rats

C/C=C(\C)C(=O)O[C@H]1[C@H](OC(C)=O)[C@]2(CO)[C@H](O)C[C@]3(C)C(=CC[C@@H]4[C@@]5(C)CC[C@H](O[C@@H]6O[C@H](C(=O)O)[C@@H](O[C@@H]7O[C@H](CO)[C@@H](O)[C@H](O)[C@H]7O)[C@H](O)[C@H]6O[C@@H]6OC[C@@H](O)[C@H](O)[C@H]6O)[C@](C)(CO)[C@@H]5CC[C@]43C)[C@@H]2CC1(C)C [escin IIa]
effect on ethanol absorption: inhibitory effect

C/C=C(/C)C(=O)O[C@H]1[C@H](OC(C)=O)[C@]2(CO)[C@H](O)C[C@]3(C)C(=CC[C@@H]4[C@@]5(C)CC[C@H](O[C@@H]6O[C@H](C(=O)O)[C@@H](O[C@@H]7O[C@H](CO)[C@@H](O)[C@H](O)[C@H]7O)[C@H](O)[C@H]6O[C@@H]6OC[C@@H](O)[C@H](O)[C@H]6O)[C@](C)(CO)[C@@H]5CC[C@]43C)[C@@H]2CC1(C)C [escin IIb]
effect on ethanol absorption: inhibitory effect

C/C=C(\C)C(=O)O[C@H]1[C@H](OC(C)=O)[C@]2(CO)[C@H](O)C[C@]3(C)C(=CC[C@@H]4[C@@]5(C)CC[C@H](O[C@@H]6O[C@H](C(=O)O)[C@@H](O[C@@H]7O[C@H](CO)[C@@H](O)[C@H](O)[C@H]7O)[C@H](O)[C@H]6O[C@@H]6O[C@H](CO)[C@@H](O)[C@H](O)[C@H]6O)[C@](C)(CO)[C@@H]5CC[C@]43C)[C@@H]2CC1(C)C [escin Ia]
effect on ethanol absorption: inhibitory effect

C/C=C(/C)C(=O)O[C@H]1[C@H](OC(C)=O)[C@]2(CO)[C@H](O)C[C@]3(C)C(=CC[C@@H]4[C@@]5(C)CC[C@H](O[C@@H]6O[C@H](C(=O)O)[C@@H](O[C@@H]7O[C@H](CO)[C@@H](O)[C@H](O)[C@H]7O)[C@H](O)[C@H]6O[C@@H]6O[C@H](CO)[C@@H](O)[C@H](O)[C@H]6O)[C@](C)(CO)[C@@H]5CC[C@]43C)[C@@H]2CC1(C)C [escin Ib]
effect on ethanol absorption: inhibitory effect
